Consider 2 molecules from patent publication US9527840B2, “Substituted-quinoxaline-type piperidine compounds and the uses thereof” (priority 2007, dated 2016).

For data set [1] the following is noted: rat, in vivo.
Data set [2] relates to guinea pig purkinje fibers.
The next data set concerns the target T1, hERG channel (Homo sapiens, UniProt Q12809).
T1 construct: expressed in transfected cells
The experiment in a line: In vitro hERG (human ether a-go-go gene) assay. The format is cell-based.

A further data set addresses kappa opioid receptor (Homo sapiens, UniProt P41145). The data set can be described thus: In vitro kappa-opioid receptor functional assay ([35S]GTPγS). It counts as biochemical. (GTPγS resists hydrolysis and so accumulates on activated G proteins.)

pEC50: −log10 of the molar value.

Chain of kappa opioid receptor (P41145 whole entry): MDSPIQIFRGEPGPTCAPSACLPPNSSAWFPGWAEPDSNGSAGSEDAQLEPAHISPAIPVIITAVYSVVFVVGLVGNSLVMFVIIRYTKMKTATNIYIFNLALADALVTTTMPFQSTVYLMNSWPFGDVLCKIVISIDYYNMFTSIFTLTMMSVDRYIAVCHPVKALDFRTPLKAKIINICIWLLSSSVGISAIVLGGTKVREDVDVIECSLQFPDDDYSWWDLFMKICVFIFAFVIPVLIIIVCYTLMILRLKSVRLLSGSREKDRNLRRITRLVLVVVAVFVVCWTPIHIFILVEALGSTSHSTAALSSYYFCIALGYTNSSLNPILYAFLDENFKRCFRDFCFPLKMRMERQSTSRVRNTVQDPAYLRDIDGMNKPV
T1 sequence (Q12809 whole entry): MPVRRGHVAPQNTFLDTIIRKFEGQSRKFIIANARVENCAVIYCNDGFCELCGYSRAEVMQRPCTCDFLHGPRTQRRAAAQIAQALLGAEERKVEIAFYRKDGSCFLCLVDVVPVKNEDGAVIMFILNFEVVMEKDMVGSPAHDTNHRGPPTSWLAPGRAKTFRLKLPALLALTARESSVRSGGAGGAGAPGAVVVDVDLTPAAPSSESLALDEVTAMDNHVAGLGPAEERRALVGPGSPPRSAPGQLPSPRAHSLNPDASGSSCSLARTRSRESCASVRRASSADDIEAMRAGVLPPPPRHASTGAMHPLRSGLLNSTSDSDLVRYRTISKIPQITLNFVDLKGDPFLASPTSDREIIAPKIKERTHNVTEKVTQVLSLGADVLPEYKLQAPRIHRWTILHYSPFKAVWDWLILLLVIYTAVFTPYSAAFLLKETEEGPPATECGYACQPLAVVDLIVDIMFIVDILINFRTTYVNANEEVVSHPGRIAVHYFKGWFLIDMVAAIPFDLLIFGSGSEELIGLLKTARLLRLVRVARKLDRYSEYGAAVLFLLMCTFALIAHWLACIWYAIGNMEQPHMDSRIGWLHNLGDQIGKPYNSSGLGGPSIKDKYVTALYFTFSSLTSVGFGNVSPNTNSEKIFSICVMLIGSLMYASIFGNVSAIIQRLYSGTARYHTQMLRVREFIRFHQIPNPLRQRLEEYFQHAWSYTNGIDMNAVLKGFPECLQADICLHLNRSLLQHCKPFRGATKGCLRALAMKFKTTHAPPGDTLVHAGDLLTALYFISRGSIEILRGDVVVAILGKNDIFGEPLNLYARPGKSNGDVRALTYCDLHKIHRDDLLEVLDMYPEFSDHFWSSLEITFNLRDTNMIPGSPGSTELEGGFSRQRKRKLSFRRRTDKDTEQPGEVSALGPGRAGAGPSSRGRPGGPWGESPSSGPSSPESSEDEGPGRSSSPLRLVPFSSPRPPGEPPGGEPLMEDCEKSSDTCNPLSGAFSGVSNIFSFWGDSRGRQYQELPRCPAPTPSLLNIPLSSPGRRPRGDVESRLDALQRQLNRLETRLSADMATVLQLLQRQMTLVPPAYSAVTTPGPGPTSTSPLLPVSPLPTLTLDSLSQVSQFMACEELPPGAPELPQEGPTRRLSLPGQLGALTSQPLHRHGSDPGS

Take `O=C(O)c1nc2ccccc2n([C@H]2C[C@H]3CCC[C@@H](C2)N3C2CC3CCCC(C3)C2)c1=O` (stereo partly drawn) [Compound 362, 4-((endo)-9-((exo)-bicyclo[3.3.1]nonan-3-yl)-9-azabicyclo[3.3.1]nonan-3-yl)-3-oxo-3,4-dihydroquinoxaline-2-carboxylic acid]: the “abnormal behavioral side effects, such as sedation, hyperactivity and/or hypoactivity” value in data set [1] is recorded as “reduced abnormal behavioral side effects”. Further, the “cardiovascular side effects (APD)” value in data set [2] is recorded as “reduced cardiovascular side effects”. Besides, on hERG channel, the “cardiovascular side effects (hERG assay)” value was “reduced cardiovascular side effects”.

One may read the pEC50 as the negative decadic logarithm of the EC50, by convention in mol/L. On kappa opioid receptor, `O=C(O)C1CCN(c2nc3ccccc3n([C@H]3C[C@H]4CC[C@@H](C3)N4C3CCCCCCC3)c2=O)CC1` [Compound 99, 1-(4-((endo)-8-cyclooctyl-8-azabicyclo[3.2.1]octan-3-yl)-3-oxo-3,4-dihydroquinoxalin-2-yl)piperidine-4-carboxylic acid] showed a pEC50 of under 4.00.
